Experimental data published in ChEMBL document CHEMBL1201862, “PubChem BioAssay data set” (2004).
Where “and” joins values, the source holds several entries; their conditions need not be identical. Identical values can stand only once.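 1) Cells in 96-well plates. 2) Compound, 48 h, 5 concentrations. 3) Linear interpolation between surrounding doses. 4) Unreached endpoint = highest concentration. The concentration for 50% growth inhibition is given as GI50.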 Calls of active or inactive are those of the source. Rule as the data show it: active = GI50 up to about 1.1 µM and inactive = higher.

Assays:
Experiment in all cases: NCI-60 cell line screen, 48 h
SNB-75 = system: SNB-75
SF-268 = system: SF-268
SNB-19 = system: SNB-19
SK-MEL-2 = system: SK-MEL-2
HOP-62 = system: HOP-62
HCT-15 = system: HCT-15
KM-20L2 = system: KM-20L2
IGROV-1 = system: IGROV-1
HOP-18 = system: HOP-18
COLO 205 = system: COLO 205
786-0 = system: 786-0
HL-60 = system: HL-60
SR = system: SR
SF-539 = system: SF-539
HOP-92 = system: HOP-92
SK-OV-3 = system: SK-OV-3
UACC-62 = system: UACC-62
SF-295 = system: SF-295
UACC-257 = system: UACC-257
Hs-578T = system: Hs-578T
K562 = system: K562
M14 = system: M14
DMS-114 = system: DMS-114
MOLT-4 = system: MOLT-4
NCI/ADR-RES = system: NCI/ADR-RES
DU-145 = system: DU-145
MCF7 = system: MCF7
EKVX = system: EKVX
PC-3 = system: PC-3
CCRF-CEM = system: CCRF-CEM
SNB-78 = system: SNB-78
OVCAR-8 = system: OVCAR-8
U-251 = system: U-251
RPMI-8226 = system: RPMI-8226
OVCAR-3 = system: OVCAR-3
LOX IMVI = system: LOX IMVI
Malme-3M = system: Malme-3M
SN12C = system: SN12C
ACHN = system: ACHN
LXFL 529 = system: LXFL 529
KM12 = system: KM12
DMS-273 = system: DMS-273
SK-MEL-28 = system: SK-MEL-28
HT-29 = system: HT-29
NCI-H522 = system: NCI-H522
HCT-116 = system: HCT-116
SK-MEL-5 = system: SK-MEL-5
M19-MEL = system: M19-MEL
A549 = system: A549
NCI-H226 = system: NCI-H226
OVCAR-4 = system: OVCAR-4
HCC 2998 = system: HCC 2998
RXF 393 = system: RXF 393
DLD-1 = system: DLD-1
CAKI-1 = system: CAKI-1
NCI-H460 = system: NCI-H460
UO-31 = system: UO-31
SW-620 = system: SW-620
A498 = system: A498

Measured: GI50

Cc1ccc(C)c(NC(=O)CC2Sc3ccccc3NC2=O)c1 (stereo not given)
inactive: SNB-75 10.7 µM and 10.4 µM | SF-268 14.7 µM and 26.2 µM | SNB-19 19.8 µM and 32.7 µM | SK-MEL-2 30.1 µM and 50.8 µM | HOP-62 20.7 µM and 17.6 µM | KM-20L2 > 100 µM and > 96.8 µM | IGROV-1 20.8 µM and 35.7 µM | HOP-18 25.1 µM and 16.7 µM | COLO 205 > 100 µM | 786-0 18.3 µM and 25.2 µM | HL-60 > 96.4 µM and > 56.2 µM | SR > 46.5 µM and 27.8 µM | SF-539 33.7 µM and 29.4 µM | HOP-92 19.1 µM and 11.9 µM | SK-OV-3 21.2 µM and 22.7 µM | UACC-62 68.9 µM and > 85.5 µM | SF-295 27.9 µM and 50.1 µM | UACC-257 34.2 µM and > 67 µM | Hs-578T 22.6 µM | K562 > 56.2 µM and 68.5 µM | M14 51.3 µM | DMS-114 49.5 µM and 30.3 µM | MOLT-4 > 56.2 µM and > 77.3 µM | NCI/ADR-RES > 49 µM | DU-145 > 100 µM and > 74.1 µM | MCF7 > 95.5 µM and 62.4 µM | EKVX 75.7 µM and > 70.5 µM | PC-3 > 89.7 µM and 79.3 µM | CCRF-CEM > 56.2 µM and > 86.3 µM | SNB-78 14.5 µM and 23.1 µM | OVCAR-8 15.5 µM and 18.6 µM | U-251 15 µM and 27 µM | RPMI-8226 > 100 µM and 53 µM
38.7 µM and 61 µM: HCT-15

CCOC(=O)NC(=O)c1cn(C(CC)COC(=O)NCCCCCCNC(=O)OCC(CC)n2cc(C(=O)NC(=O)OCC)c(=O)[nH]c2=O)c(=O)[nH]c1=O (stereo not given)
inactive: SNB-75 > 100 µM | SF-268 > 100 µM | SNB-19 > 100 µM | SK-MEL-2 > 100 µM | HOP-62 > 100 µM | OVCAR-3 > 100 µM | KM-20L2 > 100 µM | IGROV-1 > 100 µM | HOP-18 > 100 µM | LOX IMVI > 100 µM | COLO 205 > 100 µM | Malme-3M > 100 µM | SN12C > 100 µM | 786-0 > 100 µM | HL-60 > 100 µM | ACHN > 100 µM | LXFL 529 > 100 µM | KM12 > 100 µM | DMS-273 > 100 µM | SK-OV-3 > 100 µM | SK-MEL-28 > 100 µM | UACC-62 > 100 µM | SF-295 > 100 µM | HT-29 > 100 µM | NCI-H522 > 100 µM | HCT-116 > 100 µM | UACC-257 > 100 µM | SK-MEL-5 > 100 µM | K562 > 100 µM | M14 > 100 µM | DMS-114 > 100 µM | M19-MEL > 100 µM | MOLT-4 > 100 µM | A549 > 100 µM | NCI-H226 > 100 µM | OVCAR-4 > 100 µM | HCC 2998 > 100 µM | EKVX > 100 µM | RXF 393 > 100 µM | DLD-1 > 10 µM | CAKI-1 > 100 µM | NCI-H460 > 100 µM | UO-31 > 100 µM | CCRF-CEM > 100 µM | SNB-78 > 100 µM | OVCAR-8 > 100 µM | SW-620 > 100 µM | A498 > 100 µM | U-251 > 100 µM | RPMI-8226 > 100 µM
> 100 µM: HCT-15
